According to US20150011566A1, “N-PHENYLPIPERAZINE DERIVATIVES THAT ARE ANTAGONISTS OF A1A, A1D ADRENOCEPTORS AND 5-HT1A RECEPTORS FOR THE TREATMENT OF BENIGN PROSTATE HYPERPLASIA, PHARMACEUTICAL COMPOSITIONS CONTAINING THE SAME” (UNIVERSIDADE FEDERAL DO RIO DE JANEIRO-UFRJ, priority 2012, published 2015):
Where a name gives a salt, the structure may show the parent alone. Marks after values point to notes of the source that are not given here. Blank lines part the entries; values can stand above or below the molecule they belong to.

Assays:
prostate cells = details: DIZEYI et al. Prostate 59 (3): 328-336, 2004; cited from earlier work
α1D adrenoceptors = target: T1, α1D adrenoceptors (Rattus norvegicus, UniProt P23944); experiment: Phenylephrine-induced contraction inhibition in rat aorta (isometric contraction, Schild KB); assay type: cell-based; details: ratio of EC50 in presence and absence of test substance, 10 nM
T1 construct: the rat thoracic aorta corresponds to a tissue expressing mainly α1D-adrenoceptors; from tissue; host or cells: rat thoracic aorta rings
T1 sequence (P23944 1-561): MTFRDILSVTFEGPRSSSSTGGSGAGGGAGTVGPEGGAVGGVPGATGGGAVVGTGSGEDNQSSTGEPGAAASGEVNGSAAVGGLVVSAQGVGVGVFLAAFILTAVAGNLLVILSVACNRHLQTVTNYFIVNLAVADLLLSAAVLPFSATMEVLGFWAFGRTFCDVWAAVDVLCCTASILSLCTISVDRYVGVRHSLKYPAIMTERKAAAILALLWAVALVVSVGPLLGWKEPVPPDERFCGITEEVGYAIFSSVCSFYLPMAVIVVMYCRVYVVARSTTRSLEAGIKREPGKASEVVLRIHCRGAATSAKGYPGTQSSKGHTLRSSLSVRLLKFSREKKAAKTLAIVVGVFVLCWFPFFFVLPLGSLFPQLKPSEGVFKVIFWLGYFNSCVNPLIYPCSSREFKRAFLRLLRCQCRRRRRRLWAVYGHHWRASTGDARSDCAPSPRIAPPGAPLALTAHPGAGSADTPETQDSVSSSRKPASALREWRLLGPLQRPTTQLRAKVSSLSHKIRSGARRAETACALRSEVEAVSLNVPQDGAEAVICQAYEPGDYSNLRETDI
Method: Isometric contraction assays were performed using Male Wistar rats, aged 2.5-3 months euthanized as described above. The thoracic aorta (tissue enriched in functional α1D adrenergic receptors) was removed, free from adjacent connective and adipose tissues cut in 3 mm segments. […] The aort segments were then subjected to a preload of 20 mN per 60 minutes. After recovery of tissues maintained for 1 hour at rest, it was performed a contraction induced by phenylephrine (PE) 1 μM (α1 adrenergic receptors selective agonist). In this plateau contraction, in order to promote endothelium-dependent relaxation resulting from the activation of the enzyme endothelial nitric oxide synthase (eNOS) and subsequent release of nitric oxide (NO), acetylcholine 1 μM was added. Rings that relaxed at least 80% were considered to have intact endothelium, were used.
Then the preparation was washed and allowed to stand for 1 hour in order to recover the tissue. Then it was performed cumulative curves to phenylephrine (10^−9 to 10^−5 M) in the presence of propranolol 1 μM (β-adrenoceptor blocker receptors) before and after incubation for 1 hour of the LDT's at 10 or 50 nM. In parallel, a temporal control was performed to rule out any artifacts on the measured contraction, where was added only the vehicle (ultrapure water Milli Q®) instead of the substance to be tested. Strictly following the same protocol as the other tanks wherein it was added the LDT's.
The data were scanned in MacLab 8S system connected to the isometric tension transducer Grass FT-03, which recorded the voltage variation in milinewtons (mN) generated throughout the analysis. The digitized data were then analyzed by Chart 3.4/s software program (MacLab, Inc., USA). In the pharmacological screening process, the initial concentration of the used LDT's was 50 nM, which is considered as cut concentration, i.e., substances that have no effect at this concentration would not investigated in this test. […] The ratio of the EC50 value in these two conditions (with and without LDT) matches the third parameter, called “concentration ratio” (or RC).
log(CR−1)=log [B]−log KB (Equation 1)
Where CR=concentration ratio (EC′50/EC50); [B]=‘B’ antagonist concentration; KB=equilibrium dissociation constant of the antagonist ‘B’.
With this in view, the functional tests of contraction in isolated organ model were performed using these tissues. […] Similarly, targeting to rule out any artifacts on the measured contraction, a time control was performed where only the vehicle was added (ultrapure Mili Q® water) in place of the substance to be tested, strictly following the same protocol as the other vats were added to the LDT's (FIG. 1).

α1D receptors = target: T2, α1D receptors (Homo sapiens, UniProt P25100); experiment: Cell proliferation in vitro, DU-145 cells stimulated with phenylephrine (MTT); assay type: cell-based; details: 48 h
T2 construct: endogenous in cells; host or cells: DU-145
T2 sequence (P25100 1-572): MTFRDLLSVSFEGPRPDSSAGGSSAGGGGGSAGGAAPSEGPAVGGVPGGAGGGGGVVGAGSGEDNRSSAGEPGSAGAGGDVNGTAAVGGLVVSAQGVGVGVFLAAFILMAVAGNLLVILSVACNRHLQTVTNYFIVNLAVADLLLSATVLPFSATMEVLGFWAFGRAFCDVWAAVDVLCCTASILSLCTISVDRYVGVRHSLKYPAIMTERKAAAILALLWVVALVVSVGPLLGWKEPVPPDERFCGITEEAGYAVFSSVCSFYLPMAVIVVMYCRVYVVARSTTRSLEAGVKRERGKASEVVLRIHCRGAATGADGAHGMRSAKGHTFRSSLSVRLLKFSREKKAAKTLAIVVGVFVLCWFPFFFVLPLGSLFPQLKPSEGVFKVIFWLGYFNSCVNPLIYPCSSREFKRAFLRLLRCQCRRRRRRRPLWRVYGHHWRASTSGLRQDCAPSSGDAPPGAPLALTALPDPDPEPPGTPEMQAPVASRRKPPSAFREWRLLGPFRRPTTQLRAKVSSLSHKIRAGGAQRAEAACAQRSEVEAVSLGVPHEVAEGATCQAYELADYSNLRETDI
Method: (§1) Human prostate cancer cells (DU-145) were cultured in medium (RPMI 1640) until confluence. Then the cells were dissociated, plated (5×10^3 cells/well) and maintained in medium free of fetal bovine serum for 24 hours. […] Cell proliferation was assessed by using the MTT technique (MOSMANN, T. Immunol Methods. 16; 65 (1-2):55-63, 1983).

5-HT1A receptors [1] = target: T3, 5-HT1A receptors (Rattus norvegicus, UniProt P19327); experiment: Binding of [3H]p-MPPF with GTP to 5-HT1A receptors; intrinsic activity (Ki low/Ki high); details: Table 13; from Ki low/Ki high
T3 construct: Intrinsic Activity at Native 5-HT1A Receptors; from tissue; host or cells: rat hippocampus membranes
T3 sequence (P19327 1-422): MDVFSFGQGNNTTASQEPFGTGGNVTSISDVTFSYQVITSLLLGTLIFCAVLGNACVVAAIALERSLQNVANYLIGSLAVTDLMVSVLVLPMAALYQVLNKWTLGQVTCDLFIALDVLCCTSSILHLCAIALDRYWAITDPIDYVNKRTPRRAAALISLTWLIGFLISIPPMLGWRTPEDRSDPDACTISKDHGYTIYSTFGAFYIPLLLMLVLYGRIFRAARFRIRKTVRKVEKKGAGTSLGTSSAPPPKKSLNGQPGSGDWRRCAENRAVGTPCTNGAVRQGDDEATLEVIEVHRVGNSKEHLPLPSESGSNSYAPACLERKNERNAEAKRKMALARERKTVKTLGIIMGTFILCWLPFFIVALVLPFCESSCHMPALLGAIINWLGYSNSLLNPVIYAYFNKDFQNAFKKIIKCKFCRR
Method: Membrane preparations of rat hippocampus according to previously described by HALL et al (1985) and PEROUTKA (1986) were performed. The homogenization and centrifugation steps were performed identically to that described above for receptors α2A and 5-HT2A receptors.
The binding assays for the 5-HT1A receptors were performed as described previously in the literature and previously standardized in the laboratory through saturation experiments. […] (solvent for dilution of LDT's) for the determination of total binding, or 50 μL non-radioative serotonin at 10 μM to determine the non-specific binding (final volume of 500 μL). Assays were performed in triplicate. […] Assays were performed in triplicate.
After the incubation period, the reaction was stopped by adding 4 ml of ice-cold solution containing 5 mM Tris (pH 7.4), followed by vacuum filtration on glass fiber filter (GMF 3, Filtrak®) previously soaked with solution 0.5% polyethylenoimine. The filters were washed three times with 4 mL of ice-cold solution containing 5 mM Tris (pH 7.4) under vacuum to remove all free radioligand. Then the filters were dried and placed in vials containing 5 ml scintillation fluid (composition: 4% PPO, 0.1% POPOP w/p in toluene). The radioactivity retained on the filters was then determined in a liquid scintillation counter (Packard Tri-Carb 1600 TR). […] For these receptors were also determined the […] and Ki parameters.
The GTP presence displaces the GPCR to a state of low affinity (Lahti et al, 1992). The intrinsic activity of a substance can be estimated using GPCR agonist or antagonist radioligand appropriate to define the affinity of the substance in the state of high and low affinity receptor, respectively.

5-HT1A receptors [2] = target: T4, 5-HT1A receptors (Homo sapiens, UniProt P08908); experiment: Cell proliferation in vitro, DU-145 cells stimulated with 5-HT (MTT); assay type: cell-based; details: 48 h
T4 construct: endogenous in cells; host or cells: DU-145
T4 sequence (P08908 1-422): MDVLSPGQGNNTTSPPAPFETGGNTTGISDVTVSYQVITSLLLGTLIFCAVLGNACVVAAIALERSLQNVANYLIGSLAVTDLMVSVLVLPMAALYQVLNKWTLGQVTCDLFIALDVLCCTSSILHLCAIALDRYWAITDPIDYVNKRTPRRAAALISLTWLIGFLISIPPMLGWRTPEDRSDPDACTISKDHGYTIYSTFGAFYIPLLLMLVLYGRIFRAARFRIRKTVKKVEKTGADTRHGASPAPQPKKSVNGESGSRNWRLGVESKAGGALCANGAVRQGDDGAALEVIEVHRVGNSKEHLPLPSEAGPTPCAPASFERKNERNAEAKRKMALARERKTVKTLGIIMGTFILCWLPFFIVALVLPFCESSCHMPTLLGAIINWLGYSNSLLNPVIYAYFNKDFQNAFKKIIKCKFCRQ
Method: as §1

α2A receptors = target: T5, α2A receptors (Rattus norvegicus, UniProt P22909); experiment: Binding of [3H]RX821002 to α2A receptors (rat cortex membranes); details: saturation assay
T5 construct: Membrane preparations of rat cortex as described previously in the literature were performed; from tissue; host or cells: rat cortex membranes
T5 sequence (P22909 1-465): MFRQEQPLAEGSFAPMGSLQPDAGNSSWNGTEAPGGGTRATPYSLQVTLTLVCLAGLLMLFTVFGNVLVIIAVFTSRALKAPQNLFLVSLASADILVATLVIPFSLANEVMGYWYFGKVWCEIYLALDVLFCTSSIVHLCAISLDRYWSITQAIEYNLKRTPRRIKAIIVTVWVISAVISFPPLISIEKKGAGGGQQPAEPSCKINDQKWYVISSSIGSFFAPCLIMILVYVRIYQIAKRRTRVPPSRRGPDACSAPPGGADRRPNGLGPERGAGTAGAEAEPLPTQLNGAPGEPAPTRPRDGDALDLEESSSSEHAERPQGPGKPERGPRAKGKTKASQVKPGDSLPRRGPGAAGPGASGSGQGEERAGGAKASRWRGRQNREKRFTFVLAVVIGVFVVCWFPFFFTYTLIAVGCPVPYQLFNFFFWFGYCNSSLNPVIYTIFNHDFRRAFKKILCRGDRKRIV

Structure (SMILES): CCOc1ccccc1OCCN[C@H](C)Cc1ccc(OC)c(S(N)(=O)=O)c1 [tamsulosin]
inhibition of cell proliferation (prostate cells): does not inhibit cell proliferation

Structure (SMILES): COC1(C2=NCCN2)COc2ccccc2O1 (centres unmarked) [[3H] RX821002]
Kd (α2A receptors): 2.05 ± 0.28 nM

Structure (SMILES): COc1ccccc1N1CCN(CCN(C(=O)c2ccc(F)cc2)c2ccccn2)CC1 [p-MPPF, reference compound]
Proliferation percentage in relation to basel (100%) in the presence of LDT's, 5HT1A (5-HT1A receptors [2]; DU-145, 5-HT 1 μM + test substance 50 nM): 88.9 ± 11.5^b %

Results, then the molecule that gave them:

CR ± EPM (α1D adrenoceptors): 4.4 ± 0.8
Proliferation percentage in relation to basel (100%) in the presence of LDT's, α1D (α1D receptors; DU-145, phenylephrine 3 μM + test substance 50 nM): 90.98 ± 11.7^a %
Structure (SMILES): COc1ccccc1N1CCN(CCN2C(=O)CC3(CCCC3)CC2=O)CC1 [BMY7378, reference compound]

Proliferation percentage in relation to basel (100%), α1D (α1D receptors; DU-145, stimulus alone, phenylephrine 3 μM): 138.8 ± 2.6%
Structure (SMILES): CNC[C@H](O)c1cccc(O)c1 [Phenylephrine, (R)-(−)-phenylephrine hydrochloride, reference compound]

pharmacological classification (5-HT1A receptors [1]): full antagonist
Proliferation percentage in relation to basel (100%), 5-HT1A (5-HT1A receptors [2]; DU-145, stimulus alone, 5-HT 1 μM): 137.1 ± 5.2%
Structure (SMILES): Cl.NCCc1c[nH]c2ccc(O)cc12 [5-HT, 5-hydroxytryptamine hydrochloride]
